Where two headings read alike, the source gives them in different places.
How the values were obtained:
[1] = system: β-D-glucosidase of a human intestinal anaerobe, Eubacterium sp.A-44; conditions: cited from earlier work
[2] = Stability in K-R solution; type: physicochemical; conditions: 24 h, room temperature; for Stability, RSD (%): K-R solution, concentrations at 0-24 h compared
Experimental: GP and GPA were stable in K-R solution at room temperature for 24 h. The concentrations at 0, 1, 2, 3, 5, 6, 8, 10 and 24 h were determined and compared.
All the components were dissolved in the K-R solution to imitate the physiological conditions of the intestinal tract. K-R nutrient solution included: NaCl 7.8 g, KCl 0.35 g, CaCl2 0.37 g, NaHCO3 1.37 g, NaH2PO4 0.02 g, MgCl2 0.02 g, glucose 2.22 g. They were dissolved in distilled water to 1000 mL.

[3] = In situ intestinal perfusion of rat duodenum (UPLC of perfusate); type: in vivo; conditions: for Cumulative Absorption Rate (%) 1 h (mean ± SD) / Cumulative Absorption Rate (%) 3 h (mean ± SD): rat duodenum, n = 6
Experimental: All animal experimental procedures were in compliance with the National Institutes of Health Guide for Care and Use of Laboratory Animals. The in situ intestinal perfusion experiment was performed by using male Sprague-Dawley rats (240 ± 20 g) which obtained from Beijing Vital River Laboratory Animal Technology Co., Ltd. (SCXK 2012-0001, Beijing, China). Animals were fasted overnight (12 h) with free access to water before being allocated to different experimental groups at random. After the abdominal cavity was opened, an intestinal loop (length, 10 cm) was made by cannulation with silicone tube (i.d., 3 mm) at the duodenum which was selected 1 cm away from pylorus. The intestinal contents were removed by infusion of normal saline solution. The 25 mL perfusion solution was precisely measured and stored in the measuring cylinder. At the start of the experiment, the perfusion solutions perfused through the intestinal segment at a flow rate of 5 mL/min for 10 min by using a peristaltic pump (Petro Gas Ausrüstungen, Berlin, Germany). On reaching a steady state, changed the flow rate to 2.5 mL/min, and the intestinal perfusion samples (150 µL × 3) were collected at 30 min intervals for the duration of 3 h (0, 0.5, 1, 1.5, 2, 2.5, 3 h) with a pipette and put into shell tube. After each collection, the volumes (V1) of the perfusion solutions were recorded precisely and 450 µL blank K-R solution was added into the perfusion solution to keep the volume of the perfusion solution constant. After 3 h, the intestinal perfusion solution in peristaltic pump and the duodenum was exhausted, the volume of which was recorded as V2. All the samples were assayed by UPLC after preparation. Finally, the curves of time and the residual quantities (lnx) of GP and GPA in intestinal solution during the absorption in the duodenum for 3 h were obtained (Figure 2).The residual quantities of GP and GPA in the perfusion solution were calculated using the following equation: Xn = CnVn + 0.45 [drawing 1] , Xn is the residual quantities of GP or GPA in intestinal solution, Ci and Cn is the concentration of the GP or GPA, Vn is the volume of the intestinal perfusion solution (Vn = V1 + V2). Cumulative absorption rates were compared for 1 h and 3 h between the single and compatibility groups. The equation was as follows: 1 h/3 h cumulative absorption rate [drawing 2] .
Samples were prepared using a protein precipitation method at a volume ratio of 1:1 (v/v). The perfusion sample (150 µL) was mixed with CH3OH (150 µL), and then vortexed for 1 min. After 10 min for the precipitation, pure water (160 µL) was added to 40 µL of the above mixture. Then the sample was vortexed for 1 min and centr ifuged at 14,000 rpm for 10 min. The supernatant was directly used for UPLC analysis.
After sample preparation, 3 µL of the supernatant was injected into the UPLC system, and separated on a Waters BEH C18 column (2.1 × 50 mm, 1.7 µm). The column temperature was set at 25 °C. The mobile phase was consisted of water with 0.2% acetic acid (A) and acetonitrile (B) at a flow rate of 0.35 mL/min. The mobile phase operated in the following gradient for GP: 0–3 min: 15%–50% B, 3–3.5 min: 50%–90% B, 3.5–4 min: 90%–50% B, 4–5 min: 50%–15% B; GPA: 0–1 min: 5%–10% B, 1–2 min: 10%–20% B, 2–3 min: 20%–50% B, 3–4 min: 50%–10% B, 4–5 min: 10%–5% B. The detection wavelength was 254 nm.

[4] = Effect of physical adsorption of the peristaltic pump; type: physicochemical; conditions: for Physical Adsorption RSD (%): original vs 3 h concentration, 37 °C; for Concentration (mg/L) 3 h: perfusion solution after 3 h in water bath at 37 °C, compared with original concentration
Experimental: The perfusion solutions with known drug concentrations were incubated for 3 h in a water bath at 37 °C. The concentrations of GP and GPA in the resulting solution were determined and compared with the original concentrations.

[5] = Stability in blank intestinal perfusion solution; type: physicochemical; conditions: 3 h, 50 mg/L; for Stability in blank intestinal perfusion solution: 37 °C; for Stability, RSD (%): Blank intestinal perfusion solution, 37 °C water bath, concentrations at 0, 0.25, 0.5, 1, 2 and 3 h compared
Experimental: A total of 50 mg/L GP and GPA perfusion solution (dissolved in blank intestinal perfusion solution) was incubated in a water bath at 37 °C for 3 h. The concentrations at 0, 0.25, 0.5, 1, 2 and 3 h were determined and compared.
The blank intestinal perfusion solution was prepared by a process consistent with the in situ intestinal perfusion experiment (as follows) except for the vacancy of GP or other components in the K-R solution.

[6] = system: β-D-glucosidase in rat liver homogenate; parameters: method as in PMID 7735197; conditions: cited from earlier work
NO production = system: NO production; parameters: method as in PMID 22181069; conditions: protection from renal injury; cited from earlier work
[7] = cited from earlier work
[8] = Compatibility group (mixed with FPE)
[9] = Single group, 80 mg/L perfusion solution

| Intestinal absorption at 216 mg/L ([3]; GPA 216 mg/L in intestinal perfusion solution) | Structure (SMILES) | Hydrolysis by β-D-glucosidase [1] | Stability, RSD (%) [2] [%] | Stability in K-R solution [2] | Cumulative Absorption Rate (%) 1 h (mean ± SD) [3, 8] [%] | Cumulative Absorption Rate (%) 3 h (mean ± SD) [3, 8] [%] | Cumulative Absorption Rate (%) 1 h (mean ± SD) [3, 9] [%] | Cumulative Absorption Rate (%) 3 h (mean ± SD) [3, 9] [%] | Physical Adsorption RSD (%) [4] [%] | Concentration (mg/L) 3 h [4] [mg/L] | Stability in blank intestinal perfusion solution [5] | Stability, RSD (%) [5] [%] | Hydrolysis by β-D-glucosidase ([1]; human intestinal anaerobe Eubacterium sp.A-44) | Hydrolysis by β-D-glucosidase [6] | Effect on NO production (NO production) | Absorption in the duodenum by concentration ([7]; GP at 78 mg/L compared with other concentrations) | Absorption in the duodenum versus other parts of the intestinal tract [7] |
| --- | --- | --- | --- | --- | --- | --- | --- | --- | --- | --- | --- | --- | --- | --- | --- | --- | --- |
| poor absorption | O=C(O)C1=CO[C@@H](O[C@@H]2O[C@H](CO)[C@@H](O)[C@H](O)[C@H]2O)[C@@H]2C(CO)=CC[C@H]12 [GPA, geniposidic acid] | can hydolyse | 2.01 | stable | 0.075 ± 0.015 | 0.105 ± 0.028 | 0.063 ± 0.040 | 0.136 ± 0.046 | 1.32 | 114.68 | stable | 0.45 | – | – | – | – | – |
| – | COC(=O)C1=CO[C@@H](O[C@@H]2O[C@H](CO)[C@@H](O)[C@H](O)[C@H]2O)[C@@H]2C(CO)=CC[C@H]12 [GP, Geniposide] | – | 1.32 | stable | 0.139 ± 0.104 | 0.120 ± 0.063 | 0.059 ± 0.018 | 0.081 ± 0.017 | 0.57 | 92.34 | stable | 3.27 | can be hydrolyzed | cannot be hydrolyzed | inhibited NO production | best absorption | better than other parts of the intestinal tract |

Reference: paper PMC6271122, “Effects of Fructus Psoraleae Extract on the Intestinal Absorption Kinetics of Geniposide and Geniposidic Acid in Rat” (Molecules, 2014)
